Legend:
[1] = test system: Fusarium culmorum; assay: Fusarium culmorum (foot rot of cereals) in vitro test, radial growth on Potato Dextrose Agar; format: cell-based; details: 168 h, 25° C., seven days, read-out: control compared to the untreated check (radial growth)
[2] = test system: Colletotrichum capsici; assay: Colletotrichum capsici (anthracnose) in vitro test, radial growth on Potato Dextrose Agar; details: Colletotrichum truncatum, 168 h, read-out: control
Description: Compounds were dissolved in 0.3% DMSO and then added to Potato Dextrose Agar medium just prior to dispensing it into petri dishes. 5 mL medium with compound in the desired concentration was dispensed into 60 mm sterile petri-plates. After solidification, each plate was seeded with a 5 mm size mycelial disc taken form the periphery of an actively growing virulent culture plate. Plates were incubated in growth chambers at 25° C. temperature and 60% relative humidity for seven days and radial growth was measured.

[3] = test system: Corynespora cassicola; assay: Corynespora cassicola (leaf spot of tomato) in vitro test, radial growth on Potato Dextrose Agar; format: cell-based; details: 168 h, compared to the untreated check, radial growth after seven days, read-out: control
[4] = test system: Pyricularia oryzae; assay: microbe, parasite or virus in culture; format: cell-based; details: 168 h, read-out: control
[5] = test system: Alternaria solani; assay: Alternaria solani (early blight of tomato/potato) in vitro test, radial growth on Potato Dextrose Agar; format: cell-based; details: 168 h, compared to the untreated check, radial growth after seven days, read-out: control
[6] = test system: Botrytis cinerea; assay: Botrytis cinerea (gray mold) in vitro test, radial growth on Potato Dextrose Agar; format: cell-based; details: 168 h, compared to the untreated check, radial growth after seven days, read-out: control
[7] = test system: Phakopsora pachyrhizi; assay: Phakopsora pachyrhizi test in soybean (greenhouse, preventive activity, disease severity rating); format: in vivo; details: preventive spray on soybean, compared to the untreated check
In short: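 Greenhouse-raised young soybean plants sprayed with compound at stated rates, then inoculated one day later with 2.1×10^6 P. pachyrhizi spores and held at 25° C, 90% RH. Disease severity (0-100%) rated visually 3, 7, 10 and 15 days after application; % control calculated versus untreated plants.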

[8] = test system: Rhizoctonia solani; assay: Rhizoctonia solani (rice sheath blight/potato black scurf) in vitro test, radial growth on Potato Dextrose Agar; format: cell-based; details: 168 h, compared to the untreated check, radial growth after seven days, read-out: control

CCC(=O)N1CC(N(C)c2ccc(-c3noc(C(F)(F)F)n3)cc2)C1 [Compound 100, 1-(3-(methyl(4-(5-(trifluoromethyl)-1,2,4-oxadiazol-3-yl)phenyl)amino)azetidin-1-yl)propan-1-one]
> 70%: inhibition of growth at 300 ppm [1] | inhibition of growth at 300 ppm [2] | inhibition of growth at 300 ppm [3] | inhibition of growth at 300 ppm [4] | inhibition of growth at 300 ppm [5] | inhibition of growth at 300 ppm [6] | pest or weed control at 500 ppm [7] | inhibition of growth at 300 ppm [8]
